# Results published in PubChem BioAssay (NCI).
#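 Step 1: Grow cells in 96-well plates. Step 2: Expose to compound for 48 hours at 5 concentrations. Step 3: Interpolate endpoints linearly; if unreached, use highest concentration. GI50 is the concentration that inhibits growth by half. The concentration for full growth arrest is given as TGI.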 Calls of active or inactive are those of the source. Cut-off read from the data, not from the text of the source: active = GI50 below about 0.43 µM; inactive = the rest.
# Assays:
# Assay in all cases: NCI-60 cell line screen, 48 h
# DLD-1 colon = system: DLD-1 colon
# M19-MEL melanoma = system: M19-MEL melanoma
# XF 498 CNS = system: XF 498 CNS
# KM20L2 colon = system: KM20L2 colon
# DMS 114 small cell lung = system: DMS 114 small cell lung
# SNB-78 CNS = system: SNB-78 CNS
# RXF-631 renal = system: RXF-631 renal
# NCI/ADR-RES ovarian = system: NCI/ADR-RES ovarian
# BT-549 breast = system: BT-549 breast
Structure (SMILES),TGI (DLD-1 colon),TGI (M19-MEL melanoma),TGI (XF 498 CNS) [µM],TGI (KM20L2 colon) [µM],TGI (DMS 114 small cell lung),TGI (SNB-78 CNS),TGI (RXF-631 renal) [µM],TGI (NCI/ADR-RES ovarian) [µM],GI50 (RXF-631 renal) [µM],GI50 (DLD-1 colon) [µg/mL],GI50 (M19-MEL melanoma) [µg/mL],outcome (XF 498 CNS),outcome (KM20L2 colon),GI50 (DMS 114 small cell lung) [µg/mL],GI50 (SNB-78 CNS) [µg/mL],outcome (RXF-631 renal),TGI (BT-549 breast) [µM]
CCOC(=O)CCn1[nH]c(=O)c(Cl)c(Cl)c1=O,> 100 µM,> 100 µM,> 100,> 100,> 100 µM,> 100 µM,> 100,,,,,,,,,,
FC(F)(F)c1nc(-c2ccccc2)oc1Sc1nnc(Sc2oc(-c3ccccc3)nc2C(F)(F)F)s1,> 100 µM,> 57.8 µM,26.7,> 100,21.7 µM,> 74 µM,> 84.1,,,,,,,,,,
CN(C)C(c1ccccc1)C(O)c1ccccc1 (configuration not stated),> 100 µM,> 100 µM,> 100,> 100,> 100 µM,> 100 µM,> 100,,,,,,,,,,
COc1ccc2c3c(coc13)C(CCC(=O)O)CC2 (configuration not stated),> 100 µM,> 100 µM,> 100,> 100,> 100 µM,> 100 µM,> 100,,,,,,,,,,
c1cc2c(ncc3cscc32)s1,> 100 µM,> 100 µM,> 100,,> 100 µM,> 100 µM,> 100,> 100,,,,,,,,,
COc1ccc(/C=C\c2cc(OC)c(OC)c(OC)c2)cc1OC(=O)NCCN(C)C,15.9 µM,20.1 µM,< 0.0001,1.17,< 0.0001 µM,,,,0.258,,,,,,,,
Cc1[nH]c2ccccc2c1C1Cc2ccccc2N1C(=O)/C(Cl)=C/c1ccccc1 (configuration not stated),> 100 µM,> 100 µM,> 100,> 100,> 100 µM,> 100 µM,> 100,,,,,,,,,,
Fc1ccc(C2SCc3nc4ccccc4n32)cc1Cl (configuration not stated),> 100 µM,37.1 µM,31.7,> 100,57.4 µM,> 100 µM,> 100,,,,,,,,,,
C/C=C1/C(=C/c2[nH]c(/C=c3\[nH]/c(=C/C4=NC(=O)C(CC)=C4C)c(C)c3CCC(=O)O)c(CCC(=O)O)c2C)NC(=O)C1C (configuration not stated),> 150 µg/mL,> 150 µg/mL,,,> 150 µg/mL,> 150 µg/mL,,,,> 150,> 150,inactive,inactive,> 150,> 150,inactive,
CC(=O)N1C/C(=C\c2ccc(N(C)C)cc2)C(=O)/C(=C/c2ccc(N(C)C)cc2)C1,> 100 µM,> 100 µM,> 100,> 100,60.1 µM,> 100 µM,> 100,,,,,,,,,,
CS(=O)(=O)c1cc(=O)c2ccccc2s1,4.21 µM,18.3 µM,4.4,28.2,11.2 µM,14 µM,21.3,38.8,,,,,,,,,35.6
O=C(Nc1ccc(Cl)cc1Cl)C(=O)C(C(=O)c1ccncc1)C1OC(=O)c2ccccc21 (configuration not stated),> 100 µM,> 100 µM,> 100,> 100,> 100 µM,> 100 µM,> 100,,,,,,,,,,
CC(C)c1ccc(C(c2ccc(OCC(=O)O)cc2)c2ccc(C(C)C)cc(=O)c2O)c(O)c(=O)c1,21.3 µM,69.9 µM,9.95,> 100,8.25 µM,56.7 µM,31.3,,,,,,,,,,
COc1ccc(/C(Cl)=C(\C=O)c2ccc([N+](=O)[O-])cc2)cc1,63.1 µM,,40.4,41.8,68.5 µM,50.1 µM,68.3,,,,,,,,,,
